Results: US20120165331A1, “Di/tri-aza-spiro-C9-C11alkanes” (priority 2010, published 2012)
pKi: −log10 of the molar value.

Columns and labels:
human orexin 1 receptor = target: T1, human orexin 1 receptor (Homo sapiens, UniProt O43613); assay: Calcium accumulation in cells (FLIPR), antagonism of orexin A, human orexin 1 receptor; type: cell-based; conditions: for pKi: calcium accumulation, antagonism of orexin A, Cheng-Prusoff corrected, read-out: FLIPR hOx1R Ki; for inhibition at 10 µM: measured at a concentration of 10 μM of compound, read-out: FLIPR hOx1R % inhibition
T1 construct: expressed in transfected cells
T1 sequence (O43613 1-425): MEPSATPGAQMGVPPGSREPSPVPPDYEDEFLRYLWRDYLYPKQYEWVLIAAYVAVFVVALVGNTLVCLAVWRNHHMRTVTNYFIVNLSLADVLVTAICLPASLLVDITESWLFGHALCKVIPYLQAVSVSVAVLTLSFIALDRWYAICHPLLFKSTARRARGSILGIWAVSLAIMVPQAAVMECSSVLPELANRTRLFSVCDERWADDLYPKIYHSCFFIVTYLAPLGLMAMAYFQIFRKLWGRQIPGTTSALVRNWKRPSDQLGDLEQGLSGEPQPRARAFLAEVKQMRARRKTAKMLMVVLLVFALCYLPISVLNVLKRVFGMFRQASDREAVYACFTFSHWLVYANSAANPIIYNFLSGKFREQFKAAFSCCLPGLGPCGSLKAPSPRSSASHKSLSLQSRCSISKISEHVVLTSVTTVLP
Protocol: (§1) Calcium Accumulation in Cells (FLIPR):
(§2) Cells expressing human orexin 1 or human orexin 2 receptors, were seeded at 8,000 cells/well in 384 well black-walled clear bottom, poly-D-lysine coated plates. After 24 h, the medium was removed and cells were washed once with phosphate buffered saline and serum-deprived overnight in assay buffer (130 mM NaCl, 5.4 mM KCl, 1.8 mM CaCl2, 0.8 mM MgSO4, 0.9 mM NaH2PO4, 25 mM glucose, 20 mM HEPES, pH 7.4) containing bovine serum albumin (1% w/v).
(§3) On the day of the experiment, the cells seeded in black plates were treated with assay buffer containing the Ca^2+ sensitive fluorescent dye Fluo-4-AM (2 μM), and probenecid (0.1 mM). After 1 h plates were washed twice with, and resuspended in, assay buffer containing probenecid (0.1 mM) using a multi plate washer. The plates were placed into a FLIPR II (Fluorometric Imaging Plate Reader, Molecular Devices, Sunnyvale, Calif., USA) and baseline fluorescence (fluorescence light units, FLU) was measured (5 measurements, 2 S each; laser excitation 488 nm at 0.6-1 W, CCD camera exposure 0.4 s) before addition of buffer alone (basal) or containing test compounds (either compound of formula I alone, agonist alone or agonist in the presence of various concentrations of compounds of formula I). Fluorescence measurements were then continued every 1 S for 120 S followed by every 4 S for 240 S.
(§4) The measurements were typically made in two sequences:
(§5) Compounds of formula I were tested usually in a concentration range from 10^−9 M to 10^−5 M.
(§6) In the second round, performed one hour later (to allow for equilibration), Orexin A was tested either in the absence (calibration curves, Orexin A agonist controls) or in the presence of compounds of formula Ito determine antagonism.
(§7) Inhibition data is expressed in Table 1 as Kd [μM], converted by the Cheng and Prusoff correction (Kd=IC50/1+(L/EC50)), where IC50 is the 50% inhibition value determined in concentration response inhibition curves, EC50 is the half maximal activation concentration determined for orexin A in concentration response curves and L is the concentration of orexin A used in inhibition experiments performed in with a submaximal concentration of orexin A in the presence of up to 8 increasing concentrations of compound of formula I. Inhibition data is also expressed in Table 1 as % inhibition value measured at a concentration of 10 μM of selected compounds of formula I.

human orexin 2 receptor = target: T2, human orexin 2 receptor (Homo sapiens, UniProt O43614); assay: Calcium accumulation in cells (FLIPR), antagonism of orexin A, human orexin 2 receptor; type: cell-based; conditions: calcium accumulation, antagonism of orexin A, Cheng-Prusoff corrected; read-out: FLIPR hOx2R Ki
T2 construct: expressed in transfected cells
T2 sequence (O43614 1-444): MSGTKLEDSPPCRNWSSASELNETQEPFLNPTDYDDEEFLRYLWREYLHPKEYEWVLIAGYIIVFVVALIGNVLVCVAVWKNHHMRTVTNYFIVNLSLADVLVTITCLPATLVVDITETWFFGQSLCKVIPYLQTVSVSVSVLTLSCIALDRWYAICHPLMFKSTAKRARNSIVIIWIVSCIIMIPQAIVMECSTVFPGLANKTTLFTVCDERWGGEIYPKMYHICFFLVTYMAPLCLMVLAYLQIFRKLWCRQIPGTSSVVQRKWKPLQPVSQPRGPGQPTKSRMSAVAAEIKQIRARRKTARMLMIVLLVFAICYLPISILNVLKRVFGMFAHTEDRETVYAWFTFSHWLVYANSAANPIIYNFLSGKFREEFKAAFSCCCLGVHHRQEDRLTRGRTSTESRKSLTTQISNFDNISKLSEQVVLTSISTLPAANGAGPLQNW
Protocol: as §1, §2, §3, §4, §5, §6, §7

Structure (SMILES) | pKi (human orexin 1 receptor) | pKi (human orexin 2 receptor) | inhibition at 10 µM (human orexin 1 receptor)
Cc1cc(C)nc(N2CCC3(CC2)C(=O)N(Cc2c[nH]c4ccccc24)CCN3C)n1 [Example 1.2, 4-((1H-indol-3-yl)methyl)-9-(4,6-dimethylpyrimidin-2-yl)-1-methyl-1,4,9-triazaspiro[5.5]undecan-5-one] | 5.44 | 6.35 | –
Cc1cc(C)nc(N2CCC3(CC2)NCCN(Cc2nn(C)cc2-c2ccccc2)C3=O)n1 [Example 1.3, 9-(4,6-Dimethyl-pyrimidin-2-yl)-4-(1-methyl-4-phenyl-1H-pyrazol-3-ylmethyl)-1,4,9-triaza-spiro[5.5]undecan-5-on] | – | 6.48 | 35%
Cc1ccnc(N2CCC3(CC2)NCCN(Cc2c[nH]c4ccccc24)C3=O)n1 [Example 1.6, 4-((1H-Indol-3-yl)methyl)-9-(4-methylpyrimidin-2-yl)-1,4,9-triazaspiro[5.5] undecan-5-one] | – | 6.65 | 26%
COc1ccnc(N2CCC3(CC2)NCCN(Cc2c[nH]c4ccccc24)C3=O)n1 [Example 1.7, 4-((1H-Indol-3-yl)methyl)-9-(4-methoxypyrimidin-2-yl)-1,4,9-triazaspiro[5.5] undecan-5-one] | – | 7.00 | 35%
COc1cccc(-c2oc(C)nc2CN2CCNC3(CCN(c4nccc(C)n4)CC3)C2=O)c1 [Example 1.15, 4-((5-(3-Methoxyphenyl)-2-methyloxazol-4-yl)methyl)-9-(4-methylpyrimidin-2-yl)-1,4,9-triazaspiro[5.5] undecan-5-one] | – | 6.97 | 44%
Cc1cc(C)nc(N2CCC3(CC2)NCCN(Cc2nc(C)oc2-c2ccccc2)C3=O)n1 [Example 1.19, 9-(4,6-Dimethyl-pyrimidin-2-yl)-4-((2-methyl-5-phenyloxazol-4-yl)methyl)-1,4,9-triazaspiro[5.5] undecan-5-one] | 5.58 | 6.60 | –
Cc1ccnc(N2CCC3(CC2)NCCN(Cc2nc(C)oc2-c2ccccc2)C3=O)n1 [Example 1.20, 9-(4-Methyl-pyrimidin-2-yl)-4-((2-methyl-5-phenyloxazol-4-yl)methyl)-1,4,9-triazaspiro[5.5] undecan-5-one] | – | 5.74 | 12%
Cc1cc(C#N)nc(N2CCC3(CC2)NCCN(Cc2nc(C)oc2-c2ccccc2)C3=O)n1 [Example 1.21, 6-Methyl-2-(4-((2-methyl-5-phenyloxazol-4-yl)methyl)-5-oxo-1,4,9-triazaspiro[5.5]undecan-9-yl) pyrimidine-4-carbonitrile] | – | 6.47 | 29%
COc1ccnc(N2CCC3(CC2)NCCN(Cc2nc(C)oc2-c2ccccc2)C3=O)n1 [Example 1.22, 9-(4-Methoxy-pyrimidin-2-yl)-4-((2-methyl-5-phenyloxazol-4-yl)methyl)-1,4,9-triazaspiro[5.5] undecan-5-one] | – | 5.99 | 19%
COc1cc(C)nc(N2CCC3(CC2)NCCN(Cc2nc(C)oc2-c2ccccc2)C3=O)n1 [Example 1.23, 9-(4-Methoxy-6-methylpyrimidin-2-yl)-4-((2-methyl-5-phenyloxazol-4-yl)methyl)-1,4,9-triazaspiro[5.5] undecan-5-one] | 5.68 | 6.72 | –
COCc1cccc(-c2ocnc2CN2CCNC3(CCN(c4nc(C)cc(C#N)n4)CC3)C2=O)c1 [Example 1.28, 2-(4-((5-(3-(Methoxymethyl)phenyl)oxazol-4-yl)methyl)-5-oxo-1,4,9-triazaspiro[5.5]undecan-9-yl)-6-methylpyrimidine-4-carbonitrile] | – | 6.29 | 33%
O=C1N(Cc2ccccc2-c2ccccc2)CCC12CCN(c1nc3ccccc3s1)CC2 [Example 3.10, 8-(Benzo[d]thiazol-2-yl)-2-(biphenyl-2-ylmethyl)-2,8-diazaspiro[4.5]decan-1-one] | – | 5.97 | –
